Consider 37 molecules from PubChem BioAssay (NCI).

Values joined by “and” are separate entries in the source; they are usually repeats but may differ in a detail not shown here. Equal entries are not always repeated.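 Test compounds were applied to cells in 96-well plates for 48 hours at 5 doses. GI50: concentration for 50% inhibition of growth. TGI is the concentration that stops growth completely.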

Assay in all cases: NCI tumour cell line growth inhibition, 48 h
For assay [1], the system named is KM20L2 colon.
Assay [2] has as its system HOP-18 NSCLC.
Assay [3] concerns M19-MEL melanoma.
In assay [4] the test system is RXF-631 renal.
The test system of assay [5] is DMS 114 small cell lung.
The subject of assay [6] is P388 leukemia.
The subject of assay [7] is DU-145 prostate.
The test system of assay [8] is P388/ADR leukemia.
Assay [9] deals with MDA-MB-231 breast.
In assay [10] the test system is MDA-N.
For assay [11], the system named is BT-549 breast.

On to `CC/C(=C(/CC)c1ccc(OP(=O)([O-])[O-])cc1)c1ccc(OP(=O)([O-])[O-])cc1.N.N.N.N.[Pt+4].[Pt+4]`, for which, in assay [1], the GI50 was 26.1 µM and the TGI is greater than 100 µM. In addition, in assay [2], the GI50 was 59 µM and the TGI is greater than 100 µM.
Take `Nc1cc2c3c(cccc3c1)C(=O)N(CCN1CCN(CCN3C(=O)c4cccc5cc(N)cc(c45)C3=O)CC1)C2=O`: the TGI in assay [1], in [2], in assay [3], in [4] and in [5] was greater than 100 µM throughout.
Turning to `COC(=O)C12C3C=CC(O3)C1C1C=CC2O1` (stereo unspecified), the TGI in assay [1], in assay [2] and in [3] was greater than 100 µM each time.
With `CNS(=O)(=O)NN(C)S(=O)(=O)c1ccc(C)cc1`, the TGI in assay [1], in assay [3] and in assay [5] was greater than 100 µM in each case.
In the case of `Cc1ccc(NC(=O)CCC(=O)C2CC(=O)CCC2=O)cc1C` (stereo unspecified), the TGI in assay [1], in assay [2], in assay [3], in assay [4] and in [5] was greater than 100 µM throughout.
With `CCOC(=O)C12CN(C34CC5CC(CC(C5)C3)C4)CC(C(=O)OCC)(C1=O)C(c1ccccc1)OC2c1ccccc1` (stereo unspecified), the TGI in [1], in assay [3] and in assay [5] was greater than 100 µM in each case.
For the molecule `CC1(C)CC[C@]2(C(=O)O)CCC3(C)C(=CCC4[C@@]5(C)CC[C@H](OC6OCC(O)C(O)C6OC6OC(CO)C(O)C(O)C6O)C(C)(C)C5CC[C@]43C)C2C1` (stereo partly specified), the TGI in assay [1] was found to be 3.7 µM; in [2] it was 3.48 µM; in assay [3], 3.46 µM; in assay [4], 3.21 µM; in assay [5], 3.62 µM.
`COc1cc(-c2[nH]ncc2CCCC(=O)Nc2ccccc2[N+](=O)[O-])ccc1O`: the TGI in assay [2] was greater than 100 µM; in assay [5], 93.2 µM.
As for `COc1ccc(Nc2nc3c(N)cc(C(F)(F)F)cc3nc2-c2ccccc2)cc1`, the TGI in assay [1], in assay [2], in assay [3], in [4] and in assay [5] was greater than 100 µM throughout.
Take `CC(=O)OCC1OC(n2cnc3c(I)nc(I)nc32)C(OC(C)=O)C1OC(C)=O` (stereo unspecified): the TGI in assay [1] worked out at 32.7 µM; in assay [3] it was 12.2 µM; in [4], 34.9 µM; in assay [5], 13.1 µM.
As for `Nc1ccc(C(=O)O)c2[nH]c3ccccc3c(=O)c12`, the TGI in [1], in assay [2], in assay [3] and in assay [5] was greater than 100 µM throughout.
As for `CC1=C(C(=O)Nc2cc(F)c(F)cc2F)C(c2cccc([N+](=O)[O-])c2)C(C(=O)Nc2ccccc2C(F)(F)F)=C(C)N1` (stereo unspecified), the TGI in assay [1] is 78.4 µM; in assay [3], 91.5 µM; in [4], 49.3 µM; in assay [5], 57 µM.
Regarding `O=C(NCCS(=O)(=O)N1C(=O)C2CCCN2C(=O)[C@@H]1Cc1ccccc1)OCc1ccccc1` (stereo partly specified), the TGI in [1] is greater than 100 µM; in assay [2], greater than 100 µM; in assay [4] it was greater than 100 µM; in assay [5] it was 89.2 µM.
Take `CCOc1ccc(NC(=O)/C(=C/c2ccccc2)C(C)=O)cc1`: the TGI in [1] is 32.5 µM; in [2], 25.5 µM; in assay [3], 27.7 µM; in assay [5] it was 26.9 µM.
With `Cc1cc(C)c2c(c1C)CN1CN2Cc2c(C)c(C)cc(C)c21`, the TGI in assay [2] was greater than 100 µM; in [3], greater than 100 µM; in [5], 44.1 µM.
For `Clc1ccc(C2=NN(c3ccccc3)C3c4cc(Br)ccc4OCC23)cc1` (stereo unspecified), the TGI in [1], in assay [2], in [3], in assay [4] and in [5] was greater than 100 µM throughout.
For the molecule `COc1ccc(C=O)c(N(C)C(=O)C(C)(C)C)c1`, the TGI in assay [1], in [2], in assay [3], in [4] and in [5] was greater than 100 µM each time.
As to `C=C1C(=O)C23C(O)C1CCC2C12CO[C@]3(O)[C@@H](O)C1C(C)(C)CCC2O` (stereo partly specified), the TGI in assay [1] is 30.5 µM; in [2], 25.5 µM; in [3], 23.7 µM; in [4], 34.5 µM; in assay [5], 20.7 µM.
`CCN1CCC(O)(c2ccccc2)C(C(=O)c2ccccc2)C1` (stereo unspecified): the TGI in assay [1] was greater than 60.7 µM; in [2], 28 µM; in assay [3], greater than 63.1 µM; in assay [5] it was greater than 67.4 µM.
In the case of `CC(=O)[CH-]C(=O)c1ccccc1.CC(=O)[CH-]C(=O)c1ccccc1.[O-]Cc1cccs1.[O-]Cc1cccs1.[Ti+4]`, the GI50 is 19.8 µM in assay [1] and 82 µM in assay [3]. The TGI in assay [1] and in assay [3] was greater than 100 µM each time.
With `Fc1cccc(C=NC23CC4CC(CC(C4)C2)C3)c1`, the TGI in assay [1], in assay [2], in assay [3] and in assay [5] was greater than 100 µM each time.
Turning to `CN(C)CC1CCCC(CN(C)C)C1=O` (stereo unspecified), the TGI is 13.2 µM in assay [1]; 3.32 µM in [2]; 2.13 µM in assay [6]; 29.4 µM in [7]; 0.226 µM in assay [8]; 13 µM and 31.2 µM in assay [9]. The TGI is 7.24 µM in assay [3]; 25.6 µM and 28.4 µM in assay [10]; 3.87 µM in assay [5]; 10.7 µM and 38 µM in assay [11]. For the same molecule, the GI50 in assay [9] was 3.9 µM and 16 µM; in [11] it was 3.24 µM and 19.4 µM.
Take `C[CH2][Sn]([CH2]C)([O]C(=O)c1cc(OC)c(OC)c(OC)c1)[O][Sn]([CH2]C)([CH2]C)[O]C(=O)c1cc(OC)c(OC)c(OC)c1`: the GI50 in assay [1] is 64.6 µM; in assay [2], 22.2 µM; in assay [3], 31.3 µM; in assay [4] it was 24.5 µM; in assay [5], 15.1 µM. Also, the TGI in assay [1] was greater than 100 µM; in assay [2] it was 42.4 µM; in [3], greater than 100 µM; in [4], 53.7 µM; in assay [5], 29.1 µM.
In the case of `COc1cc(C2c3cc4c(cc3[C@@H](OCCN)[C@H]3COC(=O)C23)OCO4)cc(OC)c1O` (stereo partly specified), the TGI in assay [1] is 2.79 µM; in assay [2] it was greater than 100 µM; in [3] it was 2.14 µM; in assay [5], 0.162 µM.
As for `CCOC(=O)C1=C(O)CSC1=Nc1ccc(N=C2SCC(O)=C2C(=O)OCC)cc1`, the TGI in [1] was greater than 100 µM; in assay [3], 61.2 µM; in assay [5] it was 59.6 µM.
For the molecule `CCN1N=CSC12C(=O)N(c1ccccc1)C(=O)N2c1ccccc1` (stereo unspecified), the TGI in assay [1], in [2], in [4] and in assay [5] was greater than 100 µM each time.
For the molecule `COc1ccc(C(=O)Nc2ccccc2)cc1[N+](=O)[O-]`, the TGI in [1], in assay [3], in [4] and in assay [5] was greater than 100 µM in each case.
Consider `Cn1c(=O)c2c(nc3n2C(CCl)CO3)n(C)c1=O` (stereo unspecified), for which the TGI in assay [2], in assay [3], in assay [4] and in assay [5] was greater than 100 µM each time.
As for `Nc1ncn([C@@H]2C=C(CO)C(O)C2O)c(=O)n1` (stereo partly specified), the TGI in assay [1], in [2], in assay [3] and in assay [4] was greater than 100 µM each time.
For `O=C1/C(=C/c2ccccc2Cl)COc2ccccc21`, the TGI in assay [1] is 38.1 µM; in assay [2], 24 µM; in assay [3], 34.2 µM; in [4], 36.3 µM; in [5], 36.2 µM.
Consider `Cc1ccc(C)c(NC(=O)CCC(=O)CC(=O)C(C)(C)C)c1`, for which the TGI in [1], in assay [2], in [3] and in assay [5] was greater than 100 µM throughout.
With `COC(=O)C1(c2ccc(OC)cc2)NC(c2ccccc2)C2C(=O)N(c3ccc(OC)cc3)C(=O)C21` (stereo unspecified), the TGI in assay [1], in assay [4] and in assay [5] was greater than 100 µM throughout.
Regarding `COc1ccc(Br)c(CCCCC(=O)O)c1`, the TGI in [1], in assay [2], in assay [3] and in assay [5] was greater than 100 µM each time.
On to `COC1C2c3ccccc3C(C#N)(Cc3ccc4c(c32)OCO4)N1C(=O)c1ccccc1` (stereo unspecified), for which the TGI in assay [1], in assay [2], in assay [4] and in assay [5] was greater than 100 µM throughout.
As to `COC(=O)[C@@]12C3=NO[C@]1(C(=O)OC)C(O[Si](C)(C)C(C)(C)C)C1OC(C)(C)OC1[C@@H]2[C@@H](OCc1ccccc1)CC3` (stereo partly specified), the TGI in assay [1], in assay [2], in assay [3] and in [5] was greater than 100 µM each time.
`Cc1cc2c(C)nn(Cc3ccc(Cl)cc3Cl)c2c(C#N)c1C`: the TGI in [1], in assay [2] and in assay [3] was greater than 100 µM each time.
With `Cc1ccc(S(=O)(=O)OC(C=O)C(O)C(O)COC(c2ccccc2)(c2ccccc2)c2ccccc2)cc1` (stereo unspecified), the TGI came out at 27.4 µM in assay [1], 26.1 µM in assay [3], 10.5 µM in assay [4] and 33.8 µM in assay [5].
